From ChEMBL document CHEMBL3045600, “Synthesis and Fungicidal Activities of Phenoxyphenyl Alkoxyiminoacetamide Derivatives” (J Pestic Sci, 1998)

What was measured:
Type in all cases: functional
Podosphaera fuliginea [1] = experiment: Fungicidal activity against Podosphaera fuliginea assessed as cucumber powdery mildew control under greenhouse at 125 ppm foliar application 24 hr after inoculation on upper surface of leaf at 23 +/- 2 degC by curative manner
Botrytis cinerea [2] = experiment: Fungicidal activity against Botryotinia fuckeliana assessed as cucumber gray mold disease control at 31.3 ppm foliar application 24 hr after inoculation at 22 +/- 2 degC measured after 3 days by curative manner
[3] = tested on: Pseudoperonospora cubensis; experiment: Fungicidal activity against Pseudoperonospora cubensis assessed as cucumber downy mildew disease control at 31.3 ppm foliar application 24 hr before inoculation on upper surface of leaf by preventive manner
Podosphaera fuliginea [4] = experiment: Fungicidal activity against Podosphaera fuliginea assessed as cucumber powdery mildew control under greenhouse at 7.8 ppm foliar application 24 hr before inoculation on upper surface of leaf at 23 +/- 2 degC by preventive manner
[5] = tested on: Pseudoperonospora cubensis; experiment: Fungicidal activity against Pseudoperonospora cubensis assessed as cucumber downy mildew disease control at 31.3 ppm foliar application 24 hr after inoculation on upper surface of leaf by curative manner
Thanatephorus cucumeris [6] = experiment: Fungicidal activity against Thanatephorus cucumeris assessed as rice sheath blight disease control at 31.3 ppm foliar application for 24 hr before inoculation at 26 +- 2 measured after 5 days by preventive manner
Thanatephorus cucumeris [7] = experiment: Fungicidal activity against Thanatephorus cucumeris assessed as rice sheath blight disease control at 125 ppm foliar application for 24 hr before inoculation at 26 +- 2 measured after 5 days by preventive manner
Thanatephorus cucumeris [8] = experiment: Fungicidal activity against Thanatephorus cucumeris assessed as rice sheath blight disease control at 7.8 ppm foliar application for 24 hr before inoculation at 26 +- 2 measured after 5 days by preventive manner
[9] = tested on: Pseudoperonospora cubensis; experiment: Fungicidal activity against Pseudoperonospora cubensis assessed as cucumber downy mildew disease control at 7.8 ppm foliar application 24 hr before inoculation on upper surface of leaf by preventive manner
Podosphaera fuliginea [10] = experiment: Fungicidal activity against Podosphaera fuliginea assessed as cucumber powdery mildew control under greenhouse at 125 ppm foliar application 24 hr before inoculation on upper surface of leaf at 23 +/- 2 degC by preventive manner
Botrytis cinerea [11] = experiment: Fungicidal activity against Botryotinia fuckeliana assessed as cucumber gray mold disease control at 7.8 ppm foliar application 24 hr after inoculation at 22 +/- 2 degC measured after 3 days by curative manner
Thanatephorus cucumeris [12] = experiment: Fungicidal activity against Thanatephorus cucumeris assessed as rice sheath blight disease control at 2 ppm foliar application for 24 hr before inoculation at 26 +- 2 measured after 5 days by preventive manner
Podosphaera fuliginea [13] = experiment: Fungicidal activity against Podosphaera fuliginea assessed as cucumber powdery mildew control under greenhouse at 2 ppm foliar application 24 hr before inoculation on upper surface of leaf at 23 +/- 2 degC by preventive manner
Podosphaera fuliginea [14] = experiment: Fungicidal activity against Podosphaera fuliginea assessed as cucumber powdery mildew control under greenhouse at 2 ppm foliar application 24 hr after inoculation on upper surface of leaf at 23 +/- 2 degC by curative manner
Podosphaera fuliginea [15] = experiment: Fungicidal activity against Podosphaera fuliginea assessed as cucumber powdery mildew control under greenhouse at 31.3 ppm foliar application 24 hr before inoculation on upper surface of leaf at 23 +/- 2 degC by preventive manner
[16] = tested on: Pseudoperonospora cubensis; experiment: Fungicidal activity against Pseudoperonospora cubensis assessed as cucumber downy mildew disease control at 7.8 ppm foliar application 24 hr after inoculation on upper surface of leaf by curative manner
Pyricularia oryzae [17] = experiment: Fungicidal activity against Magnaporthe oryzae assessed as rice blast disease control at 10 ppm submerged application measured after 7 days
[18] = tested on: Pseudoperonospora cubensis; experiment: Fungicidal activity against Pseudoperonospora cubensis assessed as cucumber downy mildew disease control at 125 ppm foliar application 24 hr before inoculation on upper surface of leaf by preventive manner
Podosphaera fuliginea [19] = experiment: Fungicidal activity against Podosphaera fuliginea assessed as cucumber powdery mildew control under greenhouse at 7.8 ppm foliar application 24 hr after inoculation on upper surface of leaf at 23 +/- 2 degC by curative manner
Botrytis cinerea [20] = experiment: Fungicidal activity against Botryotinia fuckeliana assessed as cucumber gray mold disease control at 2 ppm foliar application 24 hr after inoculation at 22 +/- 2 degC measured after 3 days by curative manner
[21] = tested on: Pseudoperonospora cubensis; experiment: Fungicidal activity against Pseudoperonospora cubensis assessed as cucumber downy mildew disease control at 125 ppm foliar application 24 hr after inoculation on upper surface of leaf by curative manner
[22] = tested on: Pseudoperonospora cubensis; experiment: Fungicidal activity against Pseudoperonospora cubensis assessed as cucumber downy mildew disease control at 2 ppm foliar application 24 hr after inoculation on upper surface of leaf by curative manner
[23] = tested on: Pseudoperonospora cubensis; experiment: Fungicidal activity against Pseudoperonospora cubensis assessed as cucumber downy mildew disease control at 2 ppm foliar application 24 hr before inoculation on upper surface of leaf by preventive manner
Botrytis cinerea [24] = experiment: Fungicidal activity against Botryotinia fuckeliana assessed as cucumber gray mold disease control at 125 ppm foliar application 24 hr after inoculation at 22 +/- 2 degC measured after 3 days by curative manner
Pyricularia oryzae [25] = experiment: Fungicidal activity against Magnaporthe oryzae assessed as rice blast disease control at 2.5 ppm submerged application measured after 7 days
Pyricularia oryzae [26] = experiment: Fungicidal activity against Magnaporthe oryzae assessed as rice blast disease control at 0.16 ppm submerged application measured after 7 days
Podosphaera fuliginea [27] = experiment: Fungicidal activity against Podosphaera fuliginea assessed as cucumber powdery mildew control under greenhouse at 31.3 ppm foliar application 24 hr after inoculation on upper surface of leaf at 23 +/- 2 degC by curative manner
Pyricularia oryzae [28] = experiment: Fungicidal activity against Magnaporthe oryzae assessed as rice blast disease control at 0.63 ppm submerged application measured after 7 days

Row | Structure (SMILES) | Activity (Podosphaera fuliginea [1]) | Activity (Botrytis cinerea [2]) | Activity [3] | Activity (Podosphaera fuliginea [4]) | Activity [5] | Activity (Thanatephorus cucumeris [6]) | Activity (Thanatephorus cucumeris [7]) | Activity (Thanatephorus cucumeris [8]) | Activity [9] | Activity (Podosphaera fuliginea [10]) | Activity (Botrytis cinerea [11]) | Activity (Thanatephorus cucumeris [12]) | Activity (Podosphaera fuliginea [13]) | Activity (Podosphaera fuliginea [14]) | Activity (Podosphaera fuliginea [15]) | Activity [16] | Activity (Pyricularia oryzae [17]) | Activity [18] | Activity (Podosphaera fuliginea [19]) | Activity (Botrytis cinerea [20]) | further results
1 | CNC(=O)/C(=N/OC)c1ccccc1Oc1ccc(C(C)(C)C)cc1 | 50% | 50% | <70% | 70% | <50% | 70% | 70% | 70% | <70% | 70% | 50% | 70% | 70% | 50% | 70% | <50% | 50% | <70% | 50% | 50% | Activity [21]: <50%; Activity [22]: <50%; Activity [23]: <70%; Activity (Botrytis cinerea [24]): 50%; Activity (Pyricularia oryzae [25]): 50%; Activity (Pyricularia oryzae [26]): 50%; Activity (Podosphaera fuliginea [27]): 50%; Activity (Pyricularia oryzae [28]): 50%
2 | C=CCOc1cccc(Oc2ccccc2/C(=N\OC)C(=O)NC)c1 | 50% | 50% | 70% | 70% | 50% | 70% | 70% | 70% | 70% | 70% | 50% | 70% | 70% | 50% | 70% | 50% | 50% | 70% | 50% | 50% | Activity [21]: 50%; Activity [22]: 50%; Activity [23]: 70%; Activity (Botrytis cinerea [24]): 50%; Activity (Pyricularia oryzae [25]): 50%; Activity (Pyricularia oryzae [26]): 50%; Activity (Podosphaera fuliginea [27]): 50%; Activity (Pyricularia oryzae [28]): 50%
3 | CNC(=O)/C(=N/OC)c1ccccc1Oc1cccc(C)c1 | 50% | 50% | 70% | 70% | 50% | 70% | 70% | 70% | 70% | 70% | 50% | 70% | 70% | 50% | 70% | 50% | 50% | 70% | 50% | 50% | Activity [21]: 50%; Activity [22]: 50%; Activity [23]: 70%; Activity (Botrytis cinerea [24]): 50%; Activity (Pyricularia oryzae [25]): 50%; Activity (Pyricularia oryzae [26]): 50%; Activity (Podosphaera fuliginea [27]): 50%; Activity (Pyricularia oryzae [28]): 50%
4 | CNC(=O)/C(=N/OC)c1ccccc1Oc1ccc(Cl)c(Cl)c1 | 50% | 50% | 70% | 70% | 50% | 70% | 70% | 70% | 70% | 70% | 50% | 70% | 70% | 50% | 70% | 50% | 50% | 70% | 50% | 50% | Activity [21]: 50%; Activity [22]: 50%; Activity [23]: 70%; Activity (Botrytis cinerea [24]): 50%; Activity (Pyricularia oryzae [25]): 50%; Activity (Pyricularia oryzae [26]): 50%; Activity (Podosphaera fuliginea [27]): 50%; Activity (Pyricularia oryzae [28]): 50%
5 | CNC(=O)/C(=N/OC)c1ccccc1Oc1ccc(OC)cc1 | 50% | 50% | 70% | 70% | 50% | 70% | 70% | 70% | 70% | 70% | 50% | 70% | 70% | 50% | 70% | 50% | 50% | 70% | 50% | 50% | Activity [21]: 50%; Activity [22]: 50%; Activity [23]: 70%; Activity (Botrytis cinerea [24]): 50%; Activity (Pyricularia oryzae [25]): 50%; Activity (Pyricularia oryzae [26]): 50%; Activity (Podosphaera fuliginea [27]): 50%; Activity (Pyricularia oryzae [28]): 50%
